Source: PubChem BioAssay AID1259375 (The Scripps Research Institute Molecular Screening Center, 2018)
Calls of active or inactive are those of the source. The rule behind the calls is not given here.

These compounds were tested against Microphthalmia-associated transcription factor (Homo sapiens) (UniProt O75030) (assay: MITF inhibitors by FRET titration, dose response, biochemical, high throughput (AID 1259375;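 note: FRET between CFP-tagged and YFP-tagged MITF protein partners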)). Settings: FRET biochemical assay, MITF inhibition.
Chain of Microphthalmia-associated transcription factor (Homo sapiens) (O75030 whole entry, looked up): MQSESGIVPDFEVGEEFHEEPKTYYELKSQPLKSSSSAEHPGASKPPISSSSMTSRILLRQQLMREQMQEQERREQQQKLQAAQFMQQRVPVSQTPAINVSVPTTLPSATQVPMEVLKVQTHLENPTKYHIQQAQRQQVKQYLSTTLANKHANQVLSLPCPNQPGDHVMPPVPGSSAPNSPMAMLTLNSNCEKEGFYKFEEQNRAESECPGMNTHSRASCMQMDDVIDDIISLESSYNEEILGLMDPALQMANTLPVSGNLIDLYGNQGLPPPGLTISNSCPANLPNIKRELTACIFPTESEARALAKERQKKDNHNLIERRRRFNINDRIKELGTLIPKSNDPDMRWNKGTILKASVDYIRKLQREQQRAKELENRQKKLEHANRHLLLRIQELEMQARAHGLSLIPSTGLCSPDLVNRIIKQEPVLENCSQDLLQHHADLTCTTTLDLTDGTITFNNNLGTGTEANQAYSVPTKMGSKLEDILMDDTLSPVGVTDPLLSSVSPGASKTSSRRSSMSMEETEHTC

`O=C(Nc1ccc(-c2cn[nH]c2)c(C(F)(F)F)c1)C1COc2ccccc2O1` (stereo not drawn) was tested. Which IC50 did it give?
The IC50 was > 6.48 µM (inactive).

`C=C1c2c(Cl)ccc(O)c2C(O)=C2C(=O)[C@]3(O)C(O)=C(C(N)=O)C(=O)[C@@H](N(C)C)[C@@H]3[C@@H](O)[C@H]12` was tested. Which IC50 did it give?
Its IC50 is 2.58 µM.

How did the IC50 turn out when `CN(C)CCn1nnnc1SCC1=C(C(=O)O)N2C(=O)[C@@H](NC(=O)Cc3csc(N)n3)[C@H]2SC1` was run?
The IC50 was > 6.48 µM (inactive).

`COc1cc(C)c2c(c1C=O)Oc1c(c(C)c(O)c3c1C(O)OC3=O)OC2=O` (stereo not drawn) was tested. Which IC50 did it give?
The IC50 was 1.66 µM.

`O=C(O)c1cc(N/N=C/c2ccc(N3CCOCC3)s2)ccc1Cl` was tested. Which IC50 did it give?
Its IC50 is 3.77 µM.

`Cc1ccc(O)c(NC(=S)NC(=O)/C=C/c2ccco2)c1` was tested. Which IC50 did it give?
The IC50 was > 6.48 µM (inactive).

For `COc1cc(CN2CCN(C3CCCC3)CC2)cc(OC)c1OC`, which IC50 is on record?
Its IC50 is > 6.48 µM (inactive).

Which IC50 does the source give for `CCn1ccnc1CN1CCN(Cc2cccc(OC)c2)C(CCO)C1` (stereo not drawn) here?
The IC50 was > 6.48 µM (inactive).

How did the IC50 turn out when `N#Cc1c(-c2ccco2)cc(-c2ccco2)nc1N` was run?
The IC50 was > 6.48 µM (inactive).

How did the IC50 turn out when `O=C1N[C@@H](COCc2ccccc2)C(=O)N2CCN(C(=O)NC3CCCCC3)C[C@H]12` was run?
The IC50 was > 6.48 µM (inactive).

With `O=C(NCc1cccnc1)c1ccnc(-c2cccs2)c1` as the compound, how does the IC50 read?
The IC50 was > 6.93 µM (inactive).

`COc1ccc2c(c1)CC(C(=O)Nc1ccc(-c3cn[nH]c3)cc1OCc1ccccc1)CO2` (stereo not drawn) was tested. Which IC50 did it give?
Its IC50 is > 6.48 µM (inactive).

With `O=C1N[C@@H](CC2CCCCC2)C(=O)N2CCN(C(=O)NCc3ccccc3)C[C@H]12` as the compound, how does the IC50 read?
The IC50 was > 6.48 µM (inactive).

`COC(=O)CSc1nnc(-c2ccco2)n1Cc1ccco1` was tested. Which IC50 did it give?
Its IC50 is > 6.48 µM (inactive).

How did the IC50 turn out when `Cc1[nH][nH]c(=O)c1C(c1ccc([N+](=O)[O-])o1)c1c(C)[nH][nH]c1=O` was run?
Its IC50 is > 6.48 µM (inactive).

With `c1coc(CNc2ccc3ncc(-c4ccco4)n3n2)c1` as the compound, how does the IC50 read?
The IC50 was > 6.48 µM (inactive).

For `OC[C@H]1OC([S-])[C@H](O)[C@@H](O)[C@@H]1O.[Au+]` (stereo partly drawn), which IC50 is on record?
The IC50 was > 6.48 µM (inactive).

How did the IC50 turn out when `CCOc1ccccc1N1CCN(Cc2cc(OC)c(O)c([N+](=O)[O-])c2)CC1` was run?
Its IC50 is > 6.48 µM (inactive).

How did the IC50 turn out when `O=C(NCCO)c1cccc(-c2cccs2)c1` was run?
Its IC50 is > 8.06 µM (inactive).

With `CN(C)c1cc(NC(=O)CNC(C)(C)C)c(O)c2c1C[C@H]1C[C@H]3[C@@H](N(C)C)C(=O)C(C(N)=O)=C(O)[C@@]3(O)C(=O)C1=C2O` as the compound, how does the IC50 read?
Its IC50 is > 6.48 µM (inactive).

`O=C(NC1CCCCC1)N1CCN2C(=O)[C@@H]3CSCN3C(=O)[C@H]2C1` was tested. Which IC50 did it give?
The IC50 was > 6.48 µM (inactive).

With `Cc1cc(N=Cc2ccc([N+](=O)[O-])o2)ccc1S(=O)(=O)O` as the compound, how does the IC50 read?
The IC50 was > 6.48 µM (inactive).

Which IC50 does the source give for `O=C1Nc2ccc(S(=O)(=O)NCc3ccccc3)cc2C1=O` here?
The IC50 was > 6.08 µM (inactive).

`CC1=NN(c2ccc(C(=O)O)c(N)c2)C(=O)C1` was tested. Which IC50 did it give?
The IC50 was > 6.48 µM (inactive).

Which IC50 does the source give for `Cc1c(NC(=O)C(C)OC(=O)c2cc3c(s2)CCC3)c(=O)n(-c2ccccc2)n1C` (stereo not drawn) here?
Its IC50 is > 6.7 µM (inactive).

For `Cc1sc2nc(C)n3c(=O)n(CC(=O)NCc4ccco4)nc3c2c1C`, which IC50 is on record?
Its IC50 is > 6.48 µM (inactive).

With `CCc1ccc(CN2CCN(Cc3cc(OC)c(O)c(OC)c3)CC2)cc1` as the compound, how does the IC50 read?
The IC50 was > 5.79 µM (inactive).

Which IC50 does the source give for `Cc1ccc(/C=C/C(=O)NCc2ccccn2)o1` here?
Its IC50 is > 6.48 µM (inactive).

How did the IC50 turn out when `O=C(NCc1ccccc1)N1CCN2C(=O)[C@H]3CCCN3C(=O)[C@H]2C1` was run?
The IC50 was > 6.48 µM (inactive).

With `O=S(=O)(c1ccccc1C(F)(F)F)N1CCC(c2nc3ccccc3[nH]2)CC1` as the compound, how does the IC50 read?
The IC50 was > 6.48 µM (inactive).

Which IC50 does the source give for `CC(=O)NS(=O)(=O)c1ccc(NC(=O)c2ccc([N+](=O)[O-])o2)cc1` here?
Its IC50 is > 6.61 µM (inactive).

With `CC[C@H](C)[C@@H]1NC(=O)[C@H]2CN(C(=O)NCc3ccccc3)CCN2C1=O` as the compound, how does the IC50 read?
Its IC50 is > 6.48 µM (inactive).

Which IC50 does the source give for `Cc1cccc(OCC(=O)N2CCN(Cc3cccc(Br)c3)CC2)c1` here?
The IC50 was > 6.48 µM (inactive).

For `CCCCn1c(=O)[nH]c(=O)c2c1nc(-c1ccc([N+](=O)[O-])o1)n2C`, which IC50 is on record?
The IC50 was > 7 µM (inactive).

How did the IC50 turn out when `CC(=O)CC1=C(C(=O)O)N2C(=O)C(N)C2SC1` (stereo not drawn) was run?
Its IC50 is > 6.48 µM (inactive).

Which IC50 does the source give for `O=C(O)CCN(CCC(=O)O)c1ccc(O)cc1` here?
The IC50 was 2.99 µM.

With `COc1ccc2c3c(cccc13)C(=O)N(C)C2=O` as the compound, how does the IC50 read?
The IC50 was > 6.48 µM (inactive).

How did the IC50 turn out when `COc1ccccc1C1(NC(=O)CCCCC2SCC3NC(=O)NC32)CCCC1` (stereo not drawn) was run?
Its IC50 is > 6.48 µM (inactive).

`Cc1ccc(C)n1C(CC(=O)O)c1ccsc1` (stereo not drawn) was tested. Which IC50 did it give?
Its IC50 is > 6.76 µM (inactive).

With `CCC(C)NCCOc1cccc(Br)c1` (stereo not drawn) as the compound, how does the IC50 read?
Its IC50 is > 6.48 µM (inactive).

For `CC(C)C[C@@H]1NC(=O)[C@H]2CN(C(=O)NCc3ccccc3)CCN2C1=O`, which IC50 is on record?
The IC50 was > 6.48 µM (inactive).

With `Cc1ccc(C(=O)Nc2ccc([N+](=O)[O-])cn2)o1` as the compound, how does the IC50 read?
Its IC50 is > 6.48 µM (inactive).

Which IC50 does the source give for `COc1c(O)cc(O)cc1O` here?
The IC50 was > 6.48 µM (inactive).

For `CC(O)(CNCCN1CCOCC1)COc1ccc(Cl)cc1` (stereo not drawn), which IC50 is on record?
Its IC50 is > 6.31 µM (inactive).

How did the IC50 turn out when `COc1ccc(OC)c(CN2CCN(Cc3ccc(F)cc3)CC2)c1` was run?
Its IC50 is > 6.11 µM (inactive).

For `O=C(NCc1ccccc1)N1CCN2C(=O)[C@@H]3CSCN3C(=O)[C@H]2C1`, which IC50 is on record?
Its IC50 is > 6.48 µM (inactive).

`NC(=O)c1ccc(-c2cccs2)s1` was tested. Which IC50 did it give?
Its IC50 is > 7.32 µM (inactive).

Which IC50 does the source give for `O=C(O)c1cccc(-n2cccc2/C=C2/NC(=O)N(c3ccc(Cl)cc3)C2=O)c1` here?
Its IC50 is > 6.48 µM (inactive).

Which IC50 does the source give for `Cc1ncn(-c2ccc(N(C)c3ncc4cccc(-c5ccn[nH]5)c4n3)cc2)n1` here?
The IC50 was > 6.48 µM (inactive).

For `CC(=O)Oc1ccccc1N1C(=O)c2ccc(Oc3cccc(N)c3)cc2C1=O`, which IC50 is on record?
Its IC50 is 2.14 µM.

For `C[C@@H](OCc1ccccc1)[C@@H]1NC(=O)[C@H]2CN(C(=O)Nc3cccc(F)c3)CCN2C1=O`, which IC50 is on record?
Its IC50 is > 6.48 µM (inactive).

`O=c1c2ccccc2nc(-c2ccccc2)n1-c1ccccc1O` was tested. Which IC50 did it give?
Its IC50 is > 6.5 µM (inactive).

With `Cc1cc2c(c(=O)[nH]1)C(=O)O/C2=C\c1ccc(C)o1` as the compound, how does the IC50 read?
Its IC50 is > 6.86 µM (inactive).

Which IC50 does the source give for `O=c1[nH]c(-c2ccco2)nc2sc3c(c12)CCCC3` here?
Its IC50 is > 9.74 µM (inactive).

`COc1cc(C=Nc2ccc(N(C)C)cc2)cc(I)c1O` was tested. Which IC50 did it give?
The IC50 was > 6.48 µM (inactive).

With `CCN(CC)c1ccc(C(c2c(C)[nH][nH]c2=O)c2c(C)[nH][nH]c2=O)cc1` as the compound, how does the IC50 read?
Its IC50 is 2.94 µM.

Which IC50 does the source give for `Cc1ccc(C(=O)N/C(=C/c2ccc([N+](=O)[O-])o2)C(=O)O)cc1` here?
The IC50 was > 5.88 µM (inactive).

How did the IC50 turn out when `COc1ccc(C)cc1NC(=O)C(NCC(O)c1ccccc1)c1ccccc1` (stereo not drawn) was run?
The IC50 was > 7.02 µM (inactive).
